According to paper PMC3892053, “Pharmacokinetic/pharmacodynamic modeling for the determination of a cimicoxib dosing regimen in the dog” (BMC Veterinary Research, 2013):
Read-outs that look alike come from different tables or passages of the source.

Tests used:
[1] = system: kaolin-induced paw inflammation; assay: Simulation of dose-effect relationship with the PK/PD model (EM dog parameters); conditions: simulated, oral, dose-linearity assumed
Procedure: For higher cimicoxib doses, only the duration of the maximum effect was increased. […] Figure 6 Simulated values of the effects of the cimicoxib for different oral doses of cimicoxib for the 4 endpoints modeled using a PK/PD model in the 8 extensive metabolizer dogs. Effects of cimicoxib vs. time (h) were simulated using the corresponding PK/PD model for different oral doses of cimicoxib (from 0.1 to 8 mg/kg) on the rectal temperature (°C), the normalized vertical ground reaction force of the paw, the creeping speed (m/s) and the overall clinical lameness score. PK and PD parameters used for simulations were the means of those obtained in the 8 extensive metabolizer dogs. The thick line was obtained with 2 mg/kg, the dose that has been selected for confirmatory clinical trials.

[2] = Plasma half-life after oral administration in four dog breeds (Study 2); format: in vivo; conditions: both sexes, 2 mg/kg
Procedure: Four different sized-breeds from four different private breeders were tested (ten individuals were used from each breed): Anglo-French Hounds, Pointers, Cavalier King Charles Spaniels and Bernese Mountain Dogs. The bodyweights of the dogs ranged between [27.2, 37.4], [16.8, 22.3], [7, 9.8], [44.5, 62.5] kg; the ages were [0.6, 2.5], [1.9, 11.8], [1.7, 6.7], [1.4, 6.4] years for the Anglo-French Hounds, Pointers, Cavalier King Charles Spaniels and Bernese Mountain Dogs breeds, respectively. The sex ratios (male/female) were 5/5, 6/4, 4/6 and 4/6 for these same breeds. Prior to the experiment, all the animals underwent a clinical examination by a veterinarian, along with a complete biochemistry profile. No clinically important abnormality was noted during these examinations.
The half-life of elimination of cimicoxib was studied in four different sized breeds (40 dogs). Two mg/kg of cimicoxib was administered orally, in the form of 10 and 20 mg (hard gelatin capsules, Vetoquinol). For each dog, four blood samples (5 mL, heparinized tubes) were taken, at 6 h, 8 h, 10 h and 24 h after administration of cimicoxib, centrifuged (3000 G) and stored (- 20°C).
(§1) Plasma samples were analyzed by a High Performance Liquid Chromatography (HPLC) method using ultraviolet (UV) detection. Briefly, an internal standard (UR-8877) and cimicoxib (UR-8880) were extracted from plasma by a solid liquid (methanol) extraction process using HLB Oasis cartridges (Waters). The extraction yield was about 90%. The HPLC apparatus consists of a pump system equipped with an automatic injector and an UV detector (242 nm). […] The mobile phase was a mixture of 0.65 L of ultra-pure water and 0.35 L of acetonitrile which was delivered at a flow rate of 1 mL per min. Under these conditions, cimicoxib (UR-8880) and the internal standard (UR-8877) were eluted at retention times of 6 to 7 min and 10 to 11 min, respectively. The method was linear over the calibration range of 0.01 to 5 μg/mL using a linear model weighted by 1/X^2. Within-day and day-to-day coefficients of variation were less than 9% and the accuracy ranged from 94 to 103%, indicating an appropriate precision and accuracy for the analytical method. The lack of interference from endogenous compounds was verified on blank plasma from untreated dogs, establishing the specificity of the method. The validated limit of quantification was 0.01 μg/mL.
Half-life was estimated by log-linear regression (estimating the slope) using the non-compartmental approach implemented in Winnonlin.

[3] = Plasma pharmacokinetics after single intravenous administration in beagle dogs; format: in vivo, dog; conditions: mean ± SD; for HL (plasma half-life): IV 2 mg/kg; for AUC / clearance / half-life / Vd: beagle, dog, plasma, iv, 2 mg/kg; for clearance: read-out: CL (plasma clearance) (converted); for half-life: read-out: HL (plasma half-life) (converted); for Vd: read-out: V (volume of distribution)
Procedure: To verify this hypothesis, a PK investigation of cimicoxib following IV administration (bolus, 2 mg/kg) was performed on the 12 dogs at least 2 months after the completion of the PK/PD study. Blood samples were obtained from the jugular vein by direct puncture at time 0 (control just before the IV administration) and then 2, 15, 30, 60, 90 min. and 2, 3, 4, 6, 9, 12, 24, 30 and 48 hours after the test article administration.
as §1
For the IV study, a non-compartmental analysis was used to determined PK parameters.

[4] = system: peri-operative pain; pain and inflammation associated with osteoarthritis; conditions: inferiority limit 20%, cited from earlier work

## COc1ccc(-c2c(Cl)ncn2-c2ccc(S(N)(=O)=O)cc2)cc1F [cimicoxib]
[1]
  dose predicted to give a nearly maximal effect, creeping speed: 1.5 mg/kg
  dose predicted to give a nearly maximal effect, ground reaction vertical force: 3 mg/kg
  dose predicted to give a nearly maximal effect, overall clinical lameness score: 2 mg/kg
  dose predicted to give a nearly maximal effect, rectal temperature: 1 mg/kg
[2]; Anglo-French hound, po, oral 2 mg/kg, Anglo-French hounds (n = 10), read-out: plasma half-life, Maximum (converted)
  half-life: 4 h
[2]; Anglo-French hound, po, oral 2 mg/kg, Anglo-French hounds (n = 10), read-out: plasma half-life, Mean (converted)
  half-life: 3.2 h
[2]; Anglo-French hound, po, oral 2 mg/kg, Anglo-French hounds (n = 10), read-out: plasma half-life, Minimum (converted)
  half-life: 2 h
[2]; Bernese mountain dog, po, oral 2 mg/kg, Bernese mountain dogs (n = 10), read-out: plasma half-life, Maximum (converted)
  half-life: 5.8 h
[2]; Bernese mountain dog, po, oral 2 mg/kg, Bernese mountain dogs (n = 10), read-out: plasma half-life, Mean (converted)
  half-life: 4.4 h
[2]; Bernese mountain dog, po, oral 2 mg/kg, Bernese mountain dogs (n = 10), read-out: plasma half-life, Minimum (converted)
  half-life: 3.2 h
[2]; Cavalier King Charles spaniel, po, oral 2 mg/kg, Cavalier King Charles spaniels (n = 10), read-out: plasma half-life, Maximum (converted)
  half-life: 3.5 h
[2]; Cavalier King Charles spaniel, po, oral 2 mg/kg, Cavalier King Charles spaniels (n = 10), read-out: plasma half-life, Mean (converted)
  half-life: 2.7 h
[2]; Cavalier King Charles spaniel, po, oral 2 mg/kg, Cavalier King Charles spaniels (n = 10), read-out: plasma half-life, Minimum (converted)
  half-life: 1.9 h
[2]; Pointer, po, oral 2 mg/kg, Pointers (n = 10), read-out: plasma half-life, Maximum (converted)
  half-life: 5.9 h
[2]; Pointer, po, oral 2 mg/kg, Pointers (n = 10), read-out: plasma half-life, Mean (converted)
  half-life: 3.9 h
[2]; Pointer, po, oral 2 mg/kg, Pointers (n = 10), read-out: plasma half-life, Minimum (converted)
  half-life: 2.5 h
[2]; oral, the 40 dogs of four breeds, as summarised in Discussion, read-out: terminal half-life
  half-life: 2 to 4 h
[3]; Extensive metabolizers (n = 8)
  HL (plasma half-life): 2.72 ± 0.858 h
  AUC: 7200 ± 1810 ng·h/mL
  clearance: 5.17 mL/min/kg
  half-life: 2.7 ± 0.9 h
  Vd: 1.12 ± 0.203 L/kg
[3]; Poor metabolizers (n = 4)
  HL (plasma half-life): 5.63 ± 0.727 h
  AUC: 19200 ± 3150 ng·h/mL
  clearance: 1.83 mL/min/kg
  half-life: 5.6 ± 1.7 h
  Vd: 0.89 ± 0.133 L/kg
[4]; pain and inflammation associated with osteoarthritis
  comparison against firocoxib, primary efficacy endpoint: non-inferiority
[4]; peri-operative pain, orthopaedic or soft tissue surgery, carprofen 4 mg/kg per day
  comparison to carprofen on pain during the first 24 hours (composite pain clinical score): non-inferiority
